Measurements reported in patent US11173146B2, “Selective activators of the intermediate conductance CA2+activated K+ channel KCa3.1 and their methods of use” (The Regents of the University of California, priority 2014, dated 2021).
Where two headings read alike, the source gives them in different places.

Tests used:
[1] = rats; literature; cited from earlier work
[2] = system: dogs; settings: intravenous 2 mg/kg, literature; cited from earlier work
[3] = system: mice; settings: literature, cited from earlier work
[4] = system: KCa2/3 channels; settings: literature; read-out: EC50s for activation of KCa2/3 channels; cited from earlier work
[5] = system: voltage-gated sodium (NaV) channels; settings: literature; cited from earlier work
[6] = system: KCa2 channels; settings: literature, cited from earlier work
[7] = biological target: KCa3.1 (Homo sapiens, UniProt O15554+P0DP23); settings: literature; cited from earlier work
[8] = biological target: KCa2.1 (Homo sapiens, UniProt Q92952); settings: literature; cited from earlier work
[9] = Solubility for electrophysiology testing; assay type: physicochemical
[10] = biological target: T1, KV11.1 (hERG) (Homo sapiens, UniProt Q12809); settings: literature; cited from earlier work
T1 construct: host or cells: HEK-293
T1 sequence (Q12809 whole entry): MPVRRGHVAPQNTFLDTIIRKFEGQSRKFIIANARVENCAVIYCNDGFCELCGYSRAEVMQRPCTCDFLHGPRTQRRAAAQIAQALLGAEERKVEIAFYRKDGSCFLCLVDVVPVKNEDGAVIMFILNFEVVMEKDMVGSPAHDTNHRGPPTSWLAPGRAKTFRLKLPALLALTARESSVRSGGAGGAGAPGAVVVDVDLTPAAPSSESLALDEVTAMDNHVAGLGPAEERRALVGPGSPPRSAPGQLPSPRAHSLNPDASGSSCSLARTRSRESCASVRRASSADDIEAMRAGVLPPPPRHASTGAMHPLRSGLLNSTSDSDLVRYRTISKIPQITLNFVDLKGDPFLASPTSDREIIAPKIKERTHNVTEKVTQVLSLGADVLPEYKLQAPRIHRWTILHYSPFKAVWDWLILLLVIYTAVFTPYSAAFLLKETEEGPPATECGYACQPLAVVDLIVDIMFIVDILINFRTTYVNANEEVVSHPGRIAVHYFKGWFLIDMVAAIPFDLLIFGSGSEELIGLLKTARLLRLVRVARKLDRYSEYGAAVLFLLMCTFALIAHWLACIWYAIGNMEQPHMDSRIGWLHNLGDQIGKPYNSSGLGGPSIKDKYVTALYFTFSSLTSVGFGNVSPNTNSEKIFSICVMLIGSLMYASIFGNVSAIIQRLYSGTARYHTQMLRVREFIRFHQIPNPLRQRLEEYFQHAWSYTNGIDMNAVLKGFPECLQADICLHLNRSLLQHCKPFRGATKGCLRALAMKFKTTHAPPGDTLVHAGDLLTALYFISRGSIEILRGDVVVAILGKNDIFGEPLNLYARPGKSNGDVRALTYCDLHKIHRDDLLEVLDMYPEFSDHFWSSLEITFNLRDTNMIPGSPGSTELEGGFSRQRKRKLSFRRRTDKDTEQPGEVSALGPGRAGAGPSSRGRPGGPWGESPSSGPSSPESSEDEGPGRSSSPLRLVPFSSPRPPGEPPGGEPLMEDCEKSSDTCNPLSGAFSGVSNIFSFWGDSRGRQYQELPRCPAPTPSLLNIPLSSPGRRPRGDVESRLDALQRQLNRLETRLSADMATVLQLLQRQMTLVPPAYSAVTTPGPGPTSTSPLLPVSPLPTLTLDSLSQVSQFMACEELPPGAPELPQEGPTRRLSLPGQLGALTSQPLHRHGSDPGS

For `Nc1nc2c(ccc3ccccc32)s1` [SKA-31, naphtho[1,2-d]thiazol-2-ylamine], the half-live [1] is listed as 12 h, the “reduction in blood pressure” value [2] is listed as −30 mmHg and the “heart rate” value ([3]; 100 mg/kg) is listed as “significant bradycardia”. The “duration of blood pressure lowering” value ([3]; 10-30 mg/kg) was 60 to 90 min and the “lowering of blood pressure” value ([3]; 10-30 mg/kg) was ~30 mmHg.

For `Nc1nc2ccc(OC(F)(F)F)cc2s1` [Riluzole], the EC50 [4] is given as 10 to 20 µM and the “concentrations that inhibit/affect NaV channels” value [5] is given as 1 to 50 µM.

For `CCn1c(=O)[nH]c2ccccc21` [EBIO, 1-ethylbenzimidazolin-2-one], the EC50 ([6]; all three KCa2 channels) is given as ~300 µM.

For `Cc1cc(C)n(-c2nc(Nc3ccc(Cl)cc3)c3ncn(C)c3n2)n1` [NS13001], the “activity on KCa3.1” value [7] is given as “completely inactive” and the “activity on KCa2.1” value [8] is given as “completely inactive”.

For `Nc1nc2c(cc(Br)c3ccccc32)s1` [SKA-87, 5-Bromooaphtho[1,2-d]thiazol-2-amine], the “solubility” value [9] was “too insoluble to be tested”.

In the case of `O=C1Nc2c(ccc(Cl)c2Cl)C1=NO` [NS309, 6,7-dichloro-1H-indole-2,3-dione 3 oxime], the EC50 [7] is listed as ~0.02 µM, the EC50 [6] is listed as ~0.6 µM and the “concentration that inhibits KV11.1 (hERG)” value [10] is listed as 1000 nM.
